Patent US20250099448A1, “HETEROCYCLIC COMPOUNDS” (Hoffmann-La Roche Inc., priority 2022, published 2025)

Biological target: T1, MAGL protein (Homo sapiens, UniProt Q99685)
T1 sequence (Q99685 1-303): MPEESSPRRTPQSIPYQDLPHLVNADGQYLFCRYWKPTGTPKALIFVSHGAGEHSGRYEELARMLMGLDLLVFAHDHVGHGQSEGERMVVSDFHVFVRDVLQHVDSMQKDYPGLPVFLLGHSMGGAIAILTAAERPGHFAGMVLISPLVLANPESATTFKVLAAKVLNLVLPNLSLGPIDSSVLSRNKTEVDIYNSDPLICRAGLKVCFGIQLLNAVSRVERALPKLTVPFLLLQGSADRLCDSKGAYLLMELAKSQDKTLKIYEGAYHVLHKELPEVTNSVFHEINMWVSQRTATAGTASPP
Test: 2-AG assay: MAGL inhibitory activity by hydrolysis of 2-arachidonoylglycerol to arachidonic acid, followed by mass spectrometry
Type: biochemical
Conditions: 8 μM 2-arachidonoylglycerol, 15 min preincubation, 30 min reaction at RT, RapidFire MS readout
Summary of the method: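 Activity was measured by RapidFire SPE–triple-quad MS as the ratio of arachidonic acid to d8-arachidonic acid after 2-AG hydrolysis (8 μM substrate, 30 min, RT, acetonitrile quench). Compounds, tested from 12.5 μM down to […], were first preincubated 15 min with MAGL in TRIS/EDTA/Tween-20 buffer containing 2.5% DMSO.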

| IC50 | Structure (SMILES) |
| --- | --- |
| 14.8 nM | O=C(N1CC(c2ccc(C3(C(F)(F)F)CC3)cc2)C1)N1CC2(CC(c3nnc(C(O)C(F)(F)F)[nH]3)C2)C1 (stereo not shown) [compound 228] |
| 3.39 nM | O=C(N1CC(c2ccc(C3(C(F)(F)F)CC3)nc2)C1)N1CC2(CC(c3nnc(C4CC4)[nH]3)C2)C1 [compound 231] |
| 43.6 nM | O=C(N1CC(c2ccc(C3(C(F)(F)F)CC3)nc2)C1)N1CC2(CC(c3nnc(C4(O)CC4)[nH]3)C2)C1 [compound 232] |
| 13.8 nM | O=C(N1CC(c2cnc(C3(C(F)(F)F)CC3)cn2)C1)N1CC2(CC(c3nnc(C4CC4)[nH]3)C2)C1 [compound 233] |
| 139 nM | O=C(N1CC(c2ccc(C3(C(F)(F)F)CC3)nn2)C1)N1CC2(CC(c3nnc(C4CC4)[nH]3)C2)C1 [compound 234] |
| 21.9 nM | O=C(N1CC(c2cnc(C3(C(F)(F)F)CC3)nc2)C1)N1CC2(CC(c3nnc(C4CC4)[nH]3)C2)C1 [compound 235] |
| 4.52 nM | O=C(N1CC(c2ccc(C3(C(F)(F)F)CC3)cn2)C1)N1CC2(CC(c3nnc(C4CC4)[nH]3)C2)C1 [compound 236] |
| 17.1 nM | O=C(N1CC2(CCN(S(=O)(=O)C34CC(C(F)(F)F)(C3)C4)CC2)C1)N1CC2(CC(c3nnc(C4CC4)[nH]3)C2)C1 [compound 237] |
| 354 nM | O=C(N1CC2(CCN(S(=O)(=O)C34CC(C(F)(F)F)(C3)C4)CC2)C1)N1CC2(CC(c3nnc(C4(O)CC4)[nH]3)C2)C1 [compound 238] |
| 842 nM | O=C(N1CC2(CCN(S(=O)(=O)C34CC(C(F)(F)F)(C3)C4)CC2)C1)N1CC2(CC(c3nnc(C4CCC4)[nH]3)C2)C1 [compound 239] |
| 1.27 nM | O=C(N1CC2(CCN(S(=O)(=O)c3ccc(C(F)(F)F)cc3F)CC2)C1)N1CC2(CC(c3nnc(C4CC4)[nH]3)C2)C1 [compound 240] |
| 0.24 nM | O=C(N1CC(c2ccc(OC(F)(F)F)c(F)c2)C1)N1CC2(CC(c3nnc(C4CC4)[nH]3)C2)C1 [compound 241] |
| 2.23 nM | O=C(N1CC(c2ccc(OC(F)(F)F)c(F)c2)C1)N1CC2(CC(c3nnc(C4(O)CC4)[nH]3)C2)C1 [compound 242] |
| 0.57 nM | O=C(N1CC(c2ccc(S(=O)(=O)C(F)(F)F)cc2)C1)N1CC2(CC(c3nnc(C4CC4)[nH]3)C2)C1 [compound 243] |
| 7.96 nM | O=C(N1CC(c2ccc(CC(F)(F)F)cc2)C1)N1CC2(CC(c3nnc(C4(O)CC4)[nH]3)C2)C1 [compound 244] |
| 50.2 nM | O=C(N1CC(c2nc(CC3(C(F)(F)F)CC3)no2)C1)N1CC2(CC(c3nnc(C4CC4)[nH]3)C2)C1 [compound 245] |
| 66.8 nM | O=C(N1CC(c2noc(C3(C(F)(F)F)CC3)n2)C1)N1CC2(CC(c3nnc(C4CC4)[nH]3)C2)C1 [compound 246] |
| 3.7 nM | CC(C)S(=O)(=O)c1ccc(C2CN(C(=O)N3CC4(CC(c5nnc(C6CC6)[nH]5)C4)C3)C2)c(Cl)c1 [compound 247] |
| 676 nM | O=C(N1CCC(NS(=O)(=O)c2ccc(C(F)(F)F)cc2)CC1)N1CC2(CC(c3nnc(C4CC4)[nH]3)C2)C1 [compound 248] |
| 1300 nM | O=C(N1CCC(NS(=O)(=O)c2ccc(F)cc2)CC1)N1CC2(CC(c3nnc(C4CC4)[nH]3)C2)C1 [compound 249] |
| 41.5 nM | O=C(N1CCC(CNS(=O)(=O)c2ccc(C(F)(F)F)cc2)CC1)N1CC2(CC(c3nnc(C4CC4)[nH]3)C2)C1 [compound 250] |

| IC50 | Structure (SMILES) |
| --- | --- |
| 23.9 nM | O=C(N1CCC(CNS(=O)(=O)c2ccc(OC(F)(F)F)cc2)CC1)N1CC2(CC(c3nnc(C4CC4)[nH]3)C2)C1 [compound 251] |
| 68.3 nM | O=C(N1CCC(CNS(=O)(=O)c2ccc(Cl)cc2)CC1)N1CC2(CC(c3nnc(C4CC4)[nH]3)C2)C1 [compound 252] |
| 0.14 nM | O=C(N1CC(c2ccc(NCC3(C(F)(F)F)CC3)nc2)C1)N1CC2(CC(c3nnc(C4CC4)[nH]3)C2)C1 [compound 253] |
| 1.25 nM | O=C(N1CC(c2ccc(NCC3(C(F)(F)F)CC3)nc2)C1)N1CC2(CC(c3nnc(C4(O)CC4)[nH]3)C2)C1 [compound 254] |
| 0.68 nM | O=C(N1CC(c2cnc(NCC3(C(F)(F)F)CC3)cn2)C1)N1CC2(CC(c3nnc(C4CC4)[nH]3)C2)C1 [compound 255] |
| 0.78 nM | O=C(N1CC(c2ccc(NCC3(C(F)(F)F)CC3)cn2)C1)N1CC2(CC(c3nnc(C4CC4)[nH]3)C2)C1 [compound 256] |
| 0.08 nM | O=C(N1CC(c2ccc(NCC3(C(F)(F)F)CC3)cc2)C1)N1CC2(CC(c3nnc(C4CC4)[nH]3)C2)C1 [compound 257] |
| 0.64 nM | O=C(N1CC(c2ccc(N3CC(C(F)(F)F)C3)nc2)C1)N1CC2(CC(c3nnc(C4CC4)[nH]3)C2)C1 [compound 258] |
| 3.63 nM | O=C(N1CC(c2ccc(N3CC(C(F)(F)F)C3)nc2)C1)N1CC2(CC(c3nnc(C4(O)CC4)[nH]3)C2)C1 [compound 259] |
| 19.7 nM | O=C(N1CC(c2ccc(N3CC(C(F)(F)F)C3)nc2)C1)N1CC2(CC(c3nnc(C4CCC4)[nH]3)C2)C1 [compound 260] |
| 0.36 nM | O=C(N1CC(c2ccc(N3CC(C(F)(F)F)C3)cc2)C1)N1CC2(CC(c3nnc(C4CC4)[nH]3)C2)C1 [compound 261] |
| 1.96 nM | O=C(N1CC(c2ccc(N3CC(C(F)(F)F)C3)cc2)C1)N1CC2(CC(c3nnc(C4(O)CC4)[nH]3)C2)C1 [compound 262] |
| 8.21 nM | O=C(N1CC(c2cnc(N3CC(C(F)(F)F)C3)nc2)C1)N1CC2(CC(c3nnc(C4CC4)[nH]3)C2)C1 [compound 263] |
| 2.27 nM | O=C(N1CC(c2cnc(N3CCC(C(F)(F)F)C3)nc2)C1)N1CC2(CC(c3nnc(C4CC4)[nH]3)C2)C1 (stereo not shown) [compound 264] |
| 0.31 nM | O=C(N1CC(c2ccc(N3CC[C@H](C(F)(F)F)C3)nc2)C1)N1CC2(CC(c3nnc(C4CC4)[nH]3)C2)C1 [compound 267] |
| 0.35 nM | O=C(N1CC(c2ccc(N3CC[C@@H](C(F)(F)F)C3)nc2)C1)N1CC2(CC(c3nnc(C4CC4)[nH]3)C2)C1 [compound 268] |
| 2.29 nM | O=C(N1CC(c2ccc(N3CCC(O)(C(F)(F)F)C3)nc2)C1)N1CC2(CC(c3nnc(C4CC4)[nH]3)C2)C1 (stereo not shown) [compound 269] |
| 3.67 nM | O=C(N1CC(c2ccc(NC3(C(F)(F)F)CC3)nc2)C1)N1CC2(CC(c3nnc(C4(O)CC4)[nH]3)C2)C1 [compound 272] |
| 10.7 nM | O=C(N1CC(c2ccc(NC3(C(F)(F)F)CC3)nc2)C1)N1CC2(CC(c3nnc(C4CCC4)[nH]3)C2)C1 [compound 273] |
| 0.23 nM | O=C(N1CC(c2ccc(NC3(C(F)(F)F)CC3)cc2)C1)N1CC2(CC(c3nnc(C4CC4)[nH]3)C2)C1 [compound 274] |
| 2.07 nM | O=C(N1CC(c2ccc(N3CC(O)(C(F)(F)F)C3)nc2)C1)N1CC2(CC(c3nnc(C4CC4)[nH]3)C2)C1 [compound 275] |

| IC50 | Structure (SMILES) |
| --- | --- |
| 0.17 nM | CC(C)c1cc(C(C)C)n(-c2ccc(C3CN(C(=O)N4CC5(CC(c6nnc(C7CC7)[nH]6)C5)C4)C3)cc2)n1 [compound 276] |
| 0.17 nM | Cc1cc(C(C)(C)C)nn1-c1ccc(C2CN(C(=O)N3CC4(CC(c5nnc(C6CC6)[nH]5)C4)C3)C2)cc1 [compound 277] |
| 0.3 nM | Cc1cc(C(F)(F)F)nn1-c1ccc(C2CN(C(=O)N3CC4(CC(c5nnc(C6CC6)[nH]5)C4)C3)C2)cc1 [compound 278] |
| 1.02 nM | O=C(N1CC2(CCN(c3ncc(Cl)cc3F)CC2)C1)N1CC2(CC(c3nnc(C4CC4)[nH]3)C2)C1 [compound 281] |
| 1.03 nM | O=C(N1CC(c2ccc(C3CC(C(F)F)C3)cc2)C1)N1CC2(CC(c3nnc(C4(O)CC4)[nH]3)C2)C1 (stereo not shown) [compound 282] |
| 0.88 nM | O=C(N1CC2(CCN(c3ccc(Cl)cc3F)CC2)C1)N1CC2(CC(c3nnc(C4CC4)[nH]3)C2)C1 [compound 283] |
| 1.59 nM | O=C(N1CC(c2ccc(-n3ccc(C(F)(F)F)cc3=O)cc2)C1)N1CC2(CC(c3nnc(C4CC4)[nH]3)C2)C1 [compound 284] |
| 0.37 nM | Cc1cc(C(F)F)nn1-c1ccc(C2CN(C(=O)N3CC4(CC(c5nnc(C6CC6)[nH]5)C4)C3)C2)cc1 [compound 285] |
| 0.48 nM | O=C(N1CC(c2cnc(C3CC4(CCC4)C3)cn2)C1)N1CC2(CC(c3nnc(C4CC4)[nH]3)C2)C1 [compound 286] |
| 0.13 nM | Cc1cc(C2CC2)n(-c2ccc(C3CN(C(=O)N4CC5(CC(c6nnc(C7CC7)[nH]6)C5)C4)C3)cc2)n1 [compound 287] |
| 0.19 nM | Cc1cc(C2CC2)nn1-c1ccc(C2CN(C(=O)N3CC4(CC(c5nnc(C6CC6)[nH]5)C4)C3)C2)cc1 [compound 288] |
| 0.45 nM | O=C(N1CC(c2ccc(N3CCC4(C3)CC4(F)F)nc2)C1)N1CC2(CC(c3nnc(C4CC4)[nH]3)C2)C1 (stereo not shown) [compound 289] |
| 21 nM | O=C(N1CC(c2ccc(N3CC4(CCOC4)C3)nc2)C1)N1CC2(CC(c3nnc(C4CC4)[nH]3)C2)C1 [compound 290] |
| 0.57 nM | O=C(N1CC(c2ccc(C3CC(O)(C(F)(F)F)C3)cc2)C1)N1CC2(CC(c3nnc(C4CC4)[nH]3)C2)C1 (stereo not shown) [compound 291] |
| 11.1 nM | O=C(N1CC(c2ccc(N3CC4(CCCO4)C3)nc2)C1)N1CC2(CC(c3nnc(C4CC4)[nH]3)C2)C1 [compound 293] |
| 0.56 nM | Cc1cc(C)n(-c2ccc(C3CN(C(=O)N4CC5(CC(c6nnc(C7CC7)[nH]6)C5)C4)C3)cc2)n1 [compound 294] |
| 1.41 nM | O=C(N1CC(c2ccc(C3(CO)CC3)cc2)C1)N1CC2(CC(c3nnc(C4CC4)[nH]3)C2)C1 [compound 295] |
| 3.16 nM | CS(=O)(=O)c1cc(C2CN(C(=O)N3CC4(CC(c5nnc(C6CC6)[nH]5)C4)C3)C2)ccc1C1CCC1 [compound 297] |
| 8.03 nM | CC(C)(O)C1CN(c2ccc(C3CN(C(=O)N4CC5(CC(c6nnc(C7CC7)[nH]6)C5)C4)C3)cn2)C1 [compound 298] |
